Laboratory results as given in US10869844B2, “Methods for the treatment of depression” (Janssen Pharmaceutica NV, priority 2014, dated 2020).
Read-outs that look alike come from different tables or passages of the source.

Test system: adult subjects with treatment resistant depression
Assay type: in vivo, human
Details: for Non-remitters % / Non-remitters No. / Remitters No. (MADRS total score 10) / Remitters % (MADRS total score 10): ketamine pooled 2x/week and 3x/week; for Duration of response, survival function estimate: Failure / Duration of response, survival function estimate: Survival: ketamine responders (Day 29), follow-up phase; for Response rates, Val/Val vs Met carriers: ketamine subjects
Description: This was a double-blind, randomized, placebo-controlled, parallel arm study to assess the safety and efficacy of ketamine dosed 2 or 3 times weekly in adult subjects with treatment resistant depression. The study consisted of up to 4 phases: a screening phase of up to 4 weeks, a 4-week double-blind treatment phase (Day 1 to Day 29), an optional 2-week open label treatment phase, and a post treatment (follow up) phase of up to 3 weeks.
On Day 1 of the double-blind treatment phase, subjects were randomized to receive either i.v. infusions of placebo 2 times weekly or i.v. infusions of placebo 3 times weekly or i.v. infusions of ketamine 0.50 mg/kg, 2 times weekly or i.v. infusions of ketamine 0.50 mg/kg, 3 times weekly over 4 weeks.
Subjects who discontinued the double-blind treatment phase of the study due to lack of efficacy (based upon the clinical judgment of the investigator) after completion of the Day 15 visit, but prior to the Day 29 visit, may have received open-label ketamine treatment with the same dose frequency for an additional 2 weeks. After completing the Early Termination visit, the subject had study assessments as per the Time and Events Schedule for the optional open-label treatment phase followed by one follow up visit performed 1 week after the last dose of study medication.

[1] = Met carriers, DAY 03 or DAY 04, ketamine pooled 2x/wk and 3x/wk
[2] = Met carriers, DAY 08(DB), ketamine pooled 2x/wk and 3x/wk
[3] = Met carriers, DAY 15(DB), ketamine pooled 2x/wk and 3x/wk
[4] = Met carriers, DAY 29(DB), ketamine pooled 2x/wk and 3x/wk
[5] = Met carriers, Day 0 after Day 29
[6] = Met carriers, Day 10 after Day 29
[7] = Met carriers, Day 11 after Day 29
[8] = Val/Val, DAY 03 or DAY 04, ketamine pooled 2x/wk and 3x/wk
[9] = Val/Val, DAY 08(DB), ketamine pooled 2x/wk and 3x/wk
[10] = Val/Val, DAY 15(DB), ketamine pooled 2x/wk and 3x/wk
[11] = Val/Val, DAY 29(DB), ketamine pooled 2x/wk and 3x/wk

With `CNC1(c2ccccc2Cl)CCCCC1=O` (racemic) [Ketamine, ketamine] the “Subjects who remain well, number” value (Met carrier group, at Day 39, from 7) was 4, the “Day 29 responders who maintain response status during the follow-up phase, %” value (Met carriers (of 8)) was 62.5% and the “Day 29 responders who maintain response status during the follow-up phase, number” value (Met carriers (of 8)) was 5. The Non-remitters % (Met carriers, DAY 03 or DAY 04) was 100.0%, the “Non-remitters No.” value (Met carriers, DAY 03 or DAY 04) was 13 and the “Remitters No. (MADRS total score 10)” value (Met carriers, DAY 03 or DAY 04) was 0. The “MADRS total score change from baseline, Mean” value (shortened to “MADRS total score change”) [1] was −6.85, the “MADRS total score, Mean” value [1] was 25.92 and the Non-responders % [1] was 92.3%. For the same molecule, the “Non-responders N” value [1] was 12, the “Responders % (MADRS total score reduction ≥50%)” value [1] was 7.7% and the “Responders N (MADRS total score reduction ≥50%)” value [1] was 1. The Non-remitters % (Met carriers, DAY 08(DB)) was 72.7%, the “Non-remitters No.” value (Met carriers, DAY 08(DB)) was 8 and the “Remitters % (MADRS total score 10)” value (Met carriers, DAY 08(DB)) was 27.3%. The “Remitters No. (MADRS total score 10)” value (Met carriers, DAY 08(DB)) was 3, the “MADRS total score change” value [2] was −15.64 and the “MADRS total score, Mean” value [2] was 17.00. For the same molecule, the Non-responders % [2] was 54.5%, the “Non-responders N” value [2] was 6 and the “Responders % (MADRS total score reduction ≥50%)” value [2] was 45.5%. The “Responders N (MADRS total score reduction ≥50%)” value [2] was 5, the Non-remitters % (Met carriers, DAY 15(DB)) was 54.5% and the “Non-remitters No.” value (Met carriers, DAY 15(DB)) was 6. For the same molecule, the “Remitters % (MADRS total score 10)” value (Met carriers, DAY 15(DB)) was 45.5%, the “Remitters No. (MADRS total score 10)” value (Met carriers, DAY 15(DB)) was 5 and the “MADRS total score change” value [3] was −17.45. For the same molecule, the “MADRS total score, Mean” value [3] was 15.18, the Non-responders % [3] was 45.5% and the “Non-responders N” value [3] was 5. For the same molecule, the “Responders % (MADRS total score reduction ≥50%)” value [3] was 54.5%, the “Responders N (MADRS total score reduction ≥50%)” value [3] was 6 and the Non-remitters % (Met carriers, DAY 29(DB)) was 33.3%. For the same molecule, the “Non-remitters No.” value (Met carriers, DAY 29(DB)) was 3, the “Remitters % (MADRS total score 10)” value (Met carriers, DAY 29(DB)) was 66.7% and the “Remitters No. (MADRS total score 10)” value (Met carriers, DAY 29(DB)) was 6. For the same molecule, the “MADRS total score change” value [4] was −22.00, the “MADRS total score, Mean” value [4] was 10.78 and the Non-responders % [4] was 11.1%. For the same molecule, the “Non-responders N” value [4] was 1, the “Responders % (MADRS total score reduction ≥50%)” value [4] was 88.9% and the “Responders N (MADRS total score reduction ≥50%)” value [4] was 8. The “Duration of response, survival function estimate: Failure” value (“Duration of response … Failure” for short) [5] was 0, the “Duration of response, survival function estimate: Survival” value [5] was 1.0000 and the “Duration of response … Failure” value [6] was 0.2857. The “Duration of response, survival function estimate: Survival” value [6] was 0.7143, the “Duration of response … Failure” value [7] was 0.4286 and the “Duration of response, survival function estimate: Survival” value [7] was 0.5714. For the same molecule, the “Day 29 responders who maintain response status during the follow-up phase, %” value (Val/Val (of 14)) was 64.3%, the “Day 29 responders who maintain response status during the follow-up phase, number” value (Val/Val (of 14)) was 9 and the “Ketamine responders on Day 29, number” value (Val/Val and Met carriers together) was 22. For the same molecule, the Non-remitters % (Val/Val, DAY 03 or DAY 04) was 95.2%, the “Non-remitters No.” value (Val/Val, DAY 03 or DAY 04) was 20 and the “Remitters % (MADRS total score 10)” value (Val/Val, DAY 03 or DAY 04) was 4.8%. For the same molecule, the “Remitters No. (MADRS total score 10)” value (Val/Val, DAY 03 or DAY 04) was 1, the “MADRS total score change” value [8] was −12.67 and the “MADRS total score, Mean” value [8] was 22.29. The Non-responders % [8] was 71.4%, the “Non-responders N” value [8] was 15 and the “Responders % (MADRS total score reduction ≥50%)” value [8] was 28.6%. The “Responders N (MADRS total score reduction ≥50%)” value [8] was 6, the Non-remitters % (Val/Val, DAY 08(DB)) was 80.0% and the “Non-remitters No.” value (Val/Val, DAY 08(DB)) was 16. The “Remitters % (MADRS total score 10)” value (Val/Val, DAY 08(DB)) was 20.0%, the “Remitters No. (MADRS total score 10)” value (Val/Val, DAY 08(DB)) was 4 and the “MADRS total score change” value [9] was −16.65. The “MADRS total score, Mean” value [9] was 18.50, the Non-responders % [9] was 60.0% and the “Non-responders N” value [9] was 12. The “Responders % (MADRS total score reduction ≥50%)” value [9] was 40.0%, the “Responders N (MADRS total score reduction ≥50%)” value [9] was 8 and the Non-remitters % (Val/Val, DAY 15(DB)) was 77.8%. For the same molecule, the “Non-remitters No.” value (Val/Val, DAY 15(DB)) was 14, the “Remitters % (MADRS total score 10)” value (Val/Val, DAY 15(DB)) was 22.2% and the “Remitters No. (MADRS total score 10)” value (Val/Val, DAY 15(DB)) was 4. For the same molecule, the “MADRS total score change” value [10] was −18.50, the “MADRS total score, Mean” value [10] was 16.11 and the Non-responders % [10] was 33.3%. For the same molecule, the “Non-responders N” value [10] was 6, the “Responders % (MADRS total score reduction ≥50%)” value [10] was 66.7% and the “Responders N (MADRS total score reduction ≥50%)” value [10] was 12. For the same molecule, the Non-remitters % (Val/Val, DAY 29(DB)) was 35.3%, the “Non-remitters No.” value (Val/Val, DAY 29(DB)) was 6 and the “Remitters % (MADRS total score 10)” value (Val/Val, DAY 29(DB)) was 64.7%. The “Remitters No. (MADRS total score 10)” value (Val/Val, DAY 29(DB)) was 11, the “MADRS total score change” value [11] was −26.59 and the “MADRS total score, Mean” value [11] was 9.59. The Non-responders % [11] was 17.6%, the “Non-responders N” value [11] was 3 and the “Responders % (MADRS total score reduction ≥50%)” value [11] was 82.4%. The “Responders N (MADRS total score reduction ≥50%)” value [11] was 14, the “Duration of response … Failure” value (Val/Val, Day 0 after Day 29) was 0 and the “Duration of response, survival function estimate: Survival” value (Val/Val, Day 0 after Day 29) was 1.0000. The “Duration of response … Failure” value (Val/Val, Day 4 after Day 29) was 0.1429, the “Duration of response, survival function estimate: Survival” value (Val/Val, Day 4 after Day 29) was 0.8571 and the “Duration of response … Failure” value (Val/Val, Day 16 after Day 29) was 0.2208. For the same molecule, the “Duration of response, survival function estimate: Survival” value (Val/Val, Day 16 after Day 29) was 0.7792, the “Duration of response … Failure” value (Val/Val, Day 18 after Day 29) was 0.3321 and the “Duration of response, survival function estimate: Survival” value (Val/Val, Day 18 after Day 29) was 0.6679. For the same molecule, the “Duration of response … Failure” value (Val/Val, Day 38 after Day 29) was 1.0000, the “Duration of response, survival function estimate: Survival” value (Val/Val, Day 38 after Day 29) was 0 and the “Subjects who remain well, number” value (Val/Val, by Day 44, of 14) was 12. The “Reduction in MADRS total score, Val/Val vs Met carriers” value (ketamine pooled 2x/wk and 3x/wk, over time) was “Larger reductions in MADRS total score over most time points were observed in Val/Val carriers as compared to those Met carriers”, the “Response rates, Val/Val vs Met carriers” value (Day 3 or Day 4 and Day 15) was “response rates were higher on Day 3 or Day 4 and Day 15 in Val/Val subjects than in Met carriers” and the “Response rates, Val/Val vs Met carriers” value (Days 8 and 29) was “response rates were similar on Days 8 and 29”.
